In assay [1] the test system is A2058 (ATCC, CRL-11147) cells. In words: Cell viability assay (Cell Titre Glo, 72 hours) in A2058 cells. The conditions noted are these: Homo sapiens. The format is cell-based. The protocol: (§1) Example 31: Cell Viability Assays
(§2) Phthalazinone based modulators as described herein were dispensed into 384 well CulturPlates™ (PerkinElmer) using Echo 555 acoustic dispensing in 10-point dose response curves at a final top concentration of 30 μM following a 1 in 3 dilution series. A2058 (ATCC, CRL-11147) or PA1 (ECACC, 90013101) cells were added directly to a compound at a density of 5000 cells per well in a final volume of 50 μL and incubated for 72 hours at 37° C., 5% CO2. Viability was assessed using Cell Titre Glo® (Promega) according to the manufacturer's instructions (25 μL per well) and IC50 curves were generated for each inhibitor using IDBS ActivityBase data analysis software.

The subject of assay [2] is PA1 (ECACC, 90013101) cells. The assay is described as follows: Cell viability assay (Cell Titre Glo, 72 hours) in PA1 cells. The format is cell-based. The conditions noted are these: Homo sapiens, PA-1. Here is the method:
as §1, §2

Our source for the IC50 values is patent US12465603B2, “Phthalazinone based modulators for the treatment of disease” (Soley Therapeutics, Inc., priority 2022, dated 2025).

One may read the IC50 as the concentration that inhibits the measured activity by half. On to `CCn1nc(C(=O)N2CCN(c3cc(OC)cnn3)CC2)c2ccccc2c1=O` [Compound 112], for which the 50% inhibitory concentration (IC50) in assay [1] and in assay [2] was > 20 µM throughout.

With `CCn1nc(C(=O)N2CCN(c3ccc(OC)c(F)c3)CC2)c2ccccc2c1=O` [Compound 141], the half-inhibitory concentration (IC50) in assay [1] and in assay [2] was > 20 µM throughout.

In the case of `CC(C)c1cncc(N2CCN(C(=O)c3nn(C)c(=O)c4ccc(F)cc34)CC2)c1` [Compound 209], the IC50 in assay [1] and in assay [2] was 10 to 20 µM each time.

For `CCn1nc(C(=O)N2CCN(c3cccc(C(F)(F)F)c3OC)CC2)c2ccccc2c1=O` [Compound 137], the values for the half-maximal inhibitory concentration (IC50) in assay [1] and in assay [2] were > 20 µM and 10 to 20 µM, respectively.

Turning to `Cc1cc(N2CCN(C(=O)c3nn(C)c(=O)c4ccccc34)CC2)ccc1F` [Compound 55], the half-inhibitory concentration (IC50) in assay [1] was > 20 µM; in assay [2] it was 10 to 20 µM.

In the case of `CCn1nc(C(=O)N2CCN(c3cc(OC)c(Br)cn3)CC2)c2ccccc2c1=O` [Compound 89], the IC50 in assay [1] and in assay [2] was > 20 µM throughout.

For `Cn1nc(C(=O)N2CCN(c3cncc(F)c3)CC2)c2ccccc2c1=O` [Compound 38], the IC50 was 10 to 20 µM in assay [1] and 1 to 10 µM in assay [2].

For the compound `Cc1ccc(C#N)cc1N1CCN(C(=O)c2nn(C)c(=O)c3ccccc23)CC1` [Compound 67], the IC50 in assay [1] and in assay [2] was ≤ 1 µM throughout.

With `COc1c(F)cncc1N1CCN(C(=O)c2nn(C)c(=O)c3ccc(F)cc23)CC1` [Compound 233], the half-inhibitory concentration (IC50) was 1 to 10 µM in assay [1] and ≤ 1 µM in assay [2].

Take `Cc1ccncc1N1CCN(C(=O)c2nn(C)c(=O)c3ccc(F)cc23)CC1` [Compound 167]: the IC50 in assay [1] and in assay [2] was ≤ 1 µM throughout.

As for `Cn1nc(C(=O)N2CCN(c3cnccc3C3CC3)CC2)c2cc(F)ccc2c1=O` [Compound 232, 4-(4-(4-cyclopropylpyridin-3-yl)piperazine-1-carbonyl)-6-fluoro-2-methylphthalazin-1(2H)-one], the IC50 in assay [1] and in assay [2] was ≤ 1 µM in each case.

As for `Cn1nc(C(=O)N2CCN(c3cccc(Cl)c3)CC2)c2ccccc2c1=O` [Compound 47], the 50% inhibitory concentration (IC50) in assay [1] and in assay [2] was ≤ 1 µM throughout.

`CCn1nc(C(=O)N2CCN(c3ncc(C#N)cc3F)CC2)c2ccccc2c1=O` [Compound 86]: the half-inhibitory concentration (IC50) in assay [1] and in assay [2] was > 20 µM in each case.

Turning to `COc1cc(C#N)cc(N2CCN(C(=O)c3nn(C)c(=O)c4ccncc34)CC2)c1` [Compound 216], the concentration for half-maximal inhibition (IC50) in assay [1] and in assay [2] was ≤ 1 µM in each case.

As to `Cn1nc(C(=O)N2CCN(c3ncccc3C3CC3)CC2)c2ccccc2c1=O` [Compound 17], the IC50 in assay [1] and in assay [2] was ≤ 1 µM throughout.

Turning to `Cn1nc(C(=O)N2CCN(c3cc(F)cc(Cl)c3)CC2)c2cnccc2c1=O` [Compound 222], the 50% inhibitory concentration (IC50) in assay [1] and in assay [2] was ≤ 1 µM in each case.

As to `CCn1nc(C(=O)N2CCN(c3ccc(F)cc3OC)CC2)c2ccccc2c1=O` [Compound 130], the IC50 in assay [1] and in assay [2] was ≤ 1 µM throughout.

Turning to `CCn1nc(C(=O)N2CCN(c3ccccc3OC(F)(F)F)CC2)c2ccccc2c1=O` [Compound 135], the half-maximal inhibitory concentration (IC50) in assay [1] and in assay [2] was ≤ 1 µM throughout.

Regarding `CCn1nc(C(=O)N2CCN(c3ccccc3C#N)CC2)c2ccccc2c1=O` [Compound 133], the IC50 in assay [1] was > 20 µM; in assay [2], 10 to 20 µM.

On to `CCn1nc(C(=O)N2CCN(c3ccc(F)cc3C3CC3)CC2)c2ccccc2c1=O` [Compound 119], for which the IC50 in assay [1] and in assay [2] was ≤ 1 µM in each case.

Take `Cn1nc(C(=O)N2CCN(c3ccccc3)CC2)c2cc(F)ccc2c1=O` [Compound 156, 6-fluoro-2-methyl-4-(4-phenylpiperazine-1-carbonyl)phthalazin-1-one]: the half-maximal inhibitory concentration (IC50) in assay [1] and in assay [2] was 1 to 10 µM each time.

On to `CCn1nc(C(=O)N2CCN(c3ncc(F)cc3C3CC3)CC2)c2ccccc2c1=O` [Compound 88], for which the IC50 in assay [1] and in assay [2] was ≤ 1 µM throughout.

On to `Cn1nc(C(=O)N2CCC(c3ccccc3)CC2)c2ccccc2c1=O` [Compound 2], for which the IC50 was 10 to 20 µM in assay [1] and 1 to 10 µM in assay [2].

For the compound `COc1cccnc1N1CCN(C(=O)c2nn(C)c(=O)c3ccccc23)CC1` [Compound 14], the values for the IC50 in assay [1] and in assay [2] were 1 to 10 µM and ≤ 1 µM, respectively.

As to `CCn1nc(C(=O)N2CCN(c3cnccc3OC)CC2)c2cc(F)ccc2c1=O` [Compound 236, 2-ethyl-6-fluoro-4-(4-(4-methoxypyridin-3-yl)piperazine-1-carbonyl)phthalazin-1(2H)-one], the concentration for half-maximal inhibition (IC50) in assay [1] and in assay [2] was ≤ 1 µM throughout.

With `CCn1nc(C(=O)N2CCN(c3cnccc3OC)CC2)c2cnccc2c1=O` [Compound 243], the half-inhibitory concentration (IC50) in assay [1] is 1 to 10 µM; in assay [2], ≤ 1 µM.

On to `Cn1nc(C(=O)N2CCN(c3ccccc3)CC2)c2cnccc2c1=O` [Compound 170, 2-methyl-4-(4-phenylpiperazine-1-carbonyl)pyrido[3,4-d]pyridazin-1-one], for which the concentration for half-maximal inhibition (IC50) in assay [1] and in assay [2] was > 20 µM throughout.

Take `Cn1nccc1N1CCN(C(=O)c2nn(C)c(=O)c3ccccc23)CC1` [Compound 227]: the half-maximal inhibitory concentration (IC50) in assay [1] and in assay [2] was > 20 µM each time.

With `CCn1nc(C(=O)N2CCN(c3ccccc3C(C)(F)F)CC2)c2ccccc2c1=O` [Compound 131], the IC50 in assay [1] and in assay [2] was 1 to 10 µM in each case.

As to `COc1cc(C#N)ncc1N1CCN(C(=O)c2nn(C)c(=O)c3ccccc23)CC1` [Compound 24], the IC50 in assay [1] and in assay [2] was > 20 µM throughout.

In the case of `COc1cncnc1N1CCN(C(=O)c2nn(C)c(=O)c3ccccc23)CC1` [Compound 22], the half-inhibitory concentration (IC50) in assay [1] and in assay [2] was > 20 µM in each case.

Consider `COc1nccnc1N1CCN(C(=O)c2nn(C)c(=O)c3ccccc23)CC1` [Compound 16], for which the figures for the IC50 in assay [1] and in assay [2] were 10 to 20 µM and 1 to 10 µM, respectively.

For `CCn1nc(C(=O)N2CCN(c3cccc4c3oc(=O)n4C)CC2)c2ccccc2c1=O` [Compound 90], the IC50 in assay [1] and in assay [2] was > 20 µM in each case.

As to `Cc1cncc(N2CCN(C(=O)c3nn(C)c(=O)c4ccc(F)cc34)CC2)c1` [Compound 162], the IC50 in assay [1] was 1 to 10 µM; in assay [2], ≤ 1 µM.

As to `CCn1nc(C(=O)N2CCN(c3ncccc3C3CC3)CC2)c2ccccc2c1=O` [Compound 108], the IC50 in assay [1] and in assay [2] was ≤ 1 µM in each case.

With `Cn1nc(C(=O)N2CCN(c3ccnc4c3OCC4)CC2)c2ccccc2c1=O` [Compound 189], the IC50 in assay [1] and in assay [2] was ≤ 1 µM throughout.

Take `CCn1nc(C(=O)N2CCN(c3cccc(C4CC4)c3)CC2)c2ccccc2c1=O` [Compound 116, 4-(4-(3-cyclopropylphenyl)piperazine-1-carbonyl)-2-ethylphthalazin-1(2H)-one]: the IC50 in assay [1] and in assay [2] was ≤ 1 µM each time.

As for `CCn1nc(C(=O)N2CCN(c3cc(OC)ccn3)CC2)c2ccccc2c1=O` [Compound 85], the IC50 in assay [1] and in assay [2] was 1 to 10 µM in each case.

Consider `CCn1nc(C(=O)N2CCN(c3ccc(F)c(OC)c3)CC2)c2ccccc2c1=O` [Compound 150], for which the IC50 in assay [1] and in assay [2] was ≤ 1 µM each time.

Consider `Cn1nc(C(=O)N2CCN(c3ccccc3C3CC3)CC2)c2ccncc2c1=O` [Compound 181], for which the IC50 in assay [1] and in assay [2] was ≤ 1 µM each time.

Take `Cn1nc(C(=O)N2CCN(c3nccn4ccnc34)CC2)c2ccccc2c1=O` [Compound 196]: the half-inhibitory concentration (IC50) in assay [1] and in assay [2] was > 20 µM each time.

As to `Cn1nc(C(=O)N2CCN(c3nccc4occc34)CC2)c2ccccc2c1=O` [Compound 195], the IC50 in assay [1] and in assay [2] was 10 to 20 µM each time.

Regarding `COc1cc(N2CCN(C(=O)c3nn(C)c(=O)c4ccccc34)CC2)cnn1` [Compound 12], the IC50 in assay [1] and in assay [2] was 10 to 20 µM each time.

As to `Cn1nc(C(=O)N2CCN(c3cncc(C#N)c3)CC2)c2ccccc2c1=O` [Compound 226], the concentration for half-maximal inhibition (IC50) in assay [1] and in assay [2] was > 20 µM in each case.

In the case of `Cn1nc(C(=O)N2CCN(c3cccc(C#N)c3)CC2)c2cc(F)ccc2c1=O` [Compound 157, 3-(4-(7-fluoro-3-methyl-4-oxo-3,4-dihydrophthalazine-1-carbonyl)piperazin-1-yl)benzonitrile], the concentration for half-maximal inhibition (IC50) in assay [1] and in assay [2] was ≤ 1 µM throughout.

On to `Cn1cc(C(=O)N2CCN(c3ccccc3)CC2)c2ccccc2c1=O` [Compound 1, 2-methyl-4-(4-phenylpiperazine-1-carbonyl)isoquinolin-1-one], for which the 50% inhibitory concentration (IC50) in assay [1] and in assay [2] was 1 to 10 µM in each case.

As for `Cn1nc(C(=O)N2CCN(c3ccnc(C4CC4)c3)CC2)c2ccccc2c1=O` [Compound 76], the IC50 in assay [1] is 10 to 20 µM; in assay [2], 1 to 10 µM.

`CCn1nc(C(=O)N2CCN(c3ncc(F)cc3C)CC2)c2ccccc2c1=O` [Compound 87]: the IC50 in assay [1] and in assay [2] was > 20 µM in each case.

`CCn1nc(C(=O)N2CCN(c3cc(F)ccn3)CC2)c2ccccc2c1=O` [Compound 109]: the concentration for half-maximal inhibition (IC50) in assay [1] and in assay [2] was 1 to 10 µM each time.

As to `CCn1nc(C(=O)N2CCN(c3ncc(C#N)cc3C)CC2)c2ccccc2c1=O` [Compound 91], the IC50 in assay [1] and in assay [2] was > 20 µM each time.

With `COCc1cncc(N2CCN(C(=O)c3nn(C)c(=O)c4ccc(F)cc34)CC2)c1` [Compound 164], the half-inhibitory concentration (IC50) in assay [1] and in assay [2] was > 20 µM throughout.

Regarding `COc1cc(F)ccc1N1CCN(C(=O)c2nn(C)c(=O)c3cnccc23)CC1` [Compound 178], the IC50 in assay [1] and in assay [2] was > 20 µM in each case.
